Tests used:
[1] = Acid dissociation constant was determined for the compound; type: ADME
[2] = target: T1, Histamine H2 receptor (Cavia porcellus, UniProt P47747); assay: Antagonistic activity of guinea pig Histamine H2 receptor expressed as pA2 at pH 7.0; type: functional; details: read-out: pA2 (converted)
[3] = target: T1, Histamine H2 receptor; assay: Antagonistic activity of guinea pig Histamine H2 receptor expressed as pA2 at pH 7.4; type: functional; details: read-out: pA2 (converted)
[4] = target: T1, Histamine H2 receptor; assay: Antagonistic activity of guinea pig Histamine H2 receptor expressed as pA2 at pH 7.8; type: functional; details: read-out: pA2 (converted)
[5] = target: Histamine H2 receptor (Cavia porcellus) (UniProt P47747)
Sequence of Histamine H2 receptor (Cavia porcellus) (P47747 whole entry): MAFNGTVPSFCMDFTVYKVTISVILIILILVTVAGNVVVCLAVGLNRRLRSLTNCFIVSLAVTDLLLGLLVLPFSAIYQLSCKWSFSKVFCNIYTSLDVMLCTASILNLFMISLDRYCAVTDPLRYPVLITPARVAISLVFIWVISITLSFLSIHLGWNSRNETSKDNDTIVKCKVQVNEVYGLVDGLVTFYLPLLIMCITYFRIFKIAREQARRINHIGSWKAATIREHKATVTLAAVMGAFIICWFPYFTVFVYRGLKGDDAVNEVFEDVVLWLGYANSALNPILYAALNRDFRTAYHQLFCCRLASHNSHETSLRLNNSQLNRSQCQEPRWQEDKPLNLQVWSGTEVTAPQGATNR

[6] = target: Histamine H2 receptor (Cavia porcellus) (UniProt P47747); remark: listed apart in the source
[7] = target: Histamine H2 receptor (Cavia porcellus) (UniProt P47747); remark: listed apart in the source

T1 sequence (P47747 whole entry): as above

Row | Structure (SMILES) | pKa ([1]; read-out: pKa1) | pKa ([1]; read-out: pKa2) | Kb [2] | Kb [3] | Kb [4] | pD2 [5] | pD2 [6] | pD2 [7]
1 | CN/C(=N/CCSCc1nc[nH]c1C)NC#N [CIMETIDINE] | 6.98 | – | – | – | – | – | – | –
2 | CC(C)/N=C/Nc1ccc(-c2c[nH]cn2)cc1 [MIFENTIDINE] | 8.82 | 5.64 | 45.7 nM | 17.4 nM | 11.7 nM | – | – | –
3 | NCCc1c[nH]cn1 [HISTAMINE] | 9.57 | 6.1 | – | – | – | 5.89 | 5.81 | 5.88
